Here are results for 2 compounds from ChEMBL document CHEMBL3046836, “Laboratory assays of select candidate insecticides for control of Dendroctonus ponderosae” (2011).

≈ marks a conversion by molar mass, not a printed value. Where “and” joins values, the source holds several entries; their conditions need not be identical. Equal entries are not always repeated. Calls of active or inactive are those of the source. No cut-off for these calls is given here.

Common to all, as to assay type: functional
The test system of assay [1] is Dendroctonus ponderosae. The assay is described as follows: Insecticidal activity against adult Dendroctonus ponderosae assessed as mortality applied topically to ventral surface of insect mesothorax after 24 hr.
The subject of assay [2] is Dendroctonus ponderosae. The assay is described as follows: Insecticidal activity against adult male Dendroctonus ponderosae assessed as mortality applied topically to ventral surface of insect mesothorax after 24 hr.
Assay [3] has as its system Dendroctonus ponderosae. The assay is described as follows: Insecticidal activity against adult female Dendroctonus ponderosae assessed as mortality applied topically to ventral surface of insect mesothorax after 24 hr.
Assay [4] has as its system Dendroctonus ponderosae. The assay is described as follows: Insecticidal activity against adult male Dendroctonus ponderosae assessed as mortality after 24 hr by filter paper assay.
In assay [5] the test system is Dendroctonus ponderosae. The assay is described as follows: Insecticidal activity against adult Dendroctonus ponderosae assessed as mortality after 12 hr by filter paper assay.
Assay [6] relates to Dendroctonus ponderosae. The assay is described as follows: Insecticidal activity against adult Dendroctonus ponderosae assessed as mortality after 24 hr by filter paper assay.
For assay [7], the system named is Dendroctonus ponderosae. The assay is described as follows: Insecticidal activity against adult female Dendroctonus ponderosae assessed as mortality after 24 hr by filter paper assay.
Assay [8] deals with Dendroctonus ponderosae. The assay is described as follows: Insecticidal activity against adult Dendroctonus ponderosae assessed as mortality applied topically on the ventral surface of insect mesothorax after 12 hr. As to conditions: topical.
Where [9] appears, read: Dendroctonus ponderosae, topical, 24 h, read-out: LC50.
[10] abbreviates: Dendroctonus ponderosae, 24 h, read-out: LC50.

By LC50 is commonly meant the concentration lethal to half of the exposed cells or organisms. On to `CNC(=O)c1cc(C#N)cc(C)c1NC(=O)c1cc(Br)nn1-c1ncccc1Cl` [CYANTRANILIPROLE], for which the 50% lethal concentration (LC50) in assay [1] was 141.5 µg/mL (≈ 299 µM); in assay [1] (setting [9]), 271 µg/mL (≈ 571 µM); in assay [2], 301.5 mg/L and 102 mg/L; in assay [3], 164.8 µg/mL (≈ 348 µM); in assay [3] (setting [9]), 258 µg/mL (≈ 544 µM); in assay [4] it was 1.7 µg/mL (≈ 3.59 µM). The median lethal concentration (LC50) in assay [4] (setting [10]) is 3.4 µg/mL (≈ 7.18 µM); in assay [5], 46.1 mg/L (≈ 97.3 µM); in assay [5] (Dendroctonus ponderosae, 12 h, read-out: LC50), 56.8 mg/L (≈ 120 µM); in assay [6], 3 mg/L and 6.2 mg/L.

Turning to `CNC(=O)c1cc(Cl)cc(C)c1NC(=O)c1cc(Br)nn1-c1ncccc1Cl` [CHLORANTRANILIPROLE], the median lethal concentration (LC50) turned out to be 72.7 µg/mL (≈ 150 µM) in assay [7]; 1380 µg/mL (≈ 2870 µM) in assay [1] (setting [9]); 1750 mg/L (≈ 3620 µM) in assay [2] (setting [9]); 1110 µg/mL (≈ 2300 µM) in assay [3] (setting [9]); 11 µg/mL (≈ 22.8 µM) in assay [4] (setting [10]); 34.9 mg/L (≈ 72.2 µM) in assay [6] (setting [10]). In addition, the LC50 in assay [8] was 6300 µg/mL (≈ 13000 µM). The LC50 result in assay [5] was “inactive”.
